Test results reported in US7312179B2, “Cyclopropyl-thienyl-carboxamide as fungicides” (Syngenta Crop Protection, Inc., priority 2002, dated 2007).

melting point: 76 to 79 °C
SMILES: Cn1cc(C(=O)Nc2ccsc2C2CC2C2CC2)c(C(F)F)n1 (stereo not shown) [Compound 4.34, 3-difluoromethyl-1-methyl-1H-pyrazole-4-carboxylic acid (2-bicyclo-propyl-2-yl-thiophen-3-yl)amide]
